In patent US9497963B2, “Methods and compositions for control of gypsy moth, Lymantria dispar” (Simon Fraser University, priority 2008, dated 2016):

Key:
male gypsy moth antenna = test: EAG dose response and ratio tests of (+)-disparlure:3c{1,3} (Example 16); design: species or system Lymantria dispar; settings: (+)-disparlure:compound ratios about 1:300 to about 1:2000 or greater
Method: Dose response and ratio tests were done at each of the following (+)-disparlure concentrations: 1 ng, 10 ng, 50 ng, 100 ng, 500 ng and 1000 ng, the following ratios of (+)-disparlure:3c{1,3} were tested: 1:100, 1:300, 1:500, 1:700, 1:1000, 1:1500 and 1:2000 (FIG. 19).

gypsy moth sensillum = test: Single sensillum recordings; design: species or system Lymantria dispar; settings: (+)-disparlure and compound mixed 1:1000

## CCCOc1ccc(OC)cc1 [3c{1,3}, 1-methoxy-4-propoxy-benzene]
Male gypsy moth antenna
  EAG depolarization shape (in words): increasingly broad depolarizations
Gypsy moth sensillum
  enhancement of neuronal activity: significant
